{"source": "patent US20220267288A1", "about": "“CARDIAC THERAPEUTIC” (priority 2019, published 2022)", "key": {"CYP3A4": {"biological_target": "T1, CYP3A4 (Homo sapiens, UniProt P08684)", "T1 construct": "purchased BD Gentest (Woburn, Mass.)", "T1 sequence (P08684 whole entry)": "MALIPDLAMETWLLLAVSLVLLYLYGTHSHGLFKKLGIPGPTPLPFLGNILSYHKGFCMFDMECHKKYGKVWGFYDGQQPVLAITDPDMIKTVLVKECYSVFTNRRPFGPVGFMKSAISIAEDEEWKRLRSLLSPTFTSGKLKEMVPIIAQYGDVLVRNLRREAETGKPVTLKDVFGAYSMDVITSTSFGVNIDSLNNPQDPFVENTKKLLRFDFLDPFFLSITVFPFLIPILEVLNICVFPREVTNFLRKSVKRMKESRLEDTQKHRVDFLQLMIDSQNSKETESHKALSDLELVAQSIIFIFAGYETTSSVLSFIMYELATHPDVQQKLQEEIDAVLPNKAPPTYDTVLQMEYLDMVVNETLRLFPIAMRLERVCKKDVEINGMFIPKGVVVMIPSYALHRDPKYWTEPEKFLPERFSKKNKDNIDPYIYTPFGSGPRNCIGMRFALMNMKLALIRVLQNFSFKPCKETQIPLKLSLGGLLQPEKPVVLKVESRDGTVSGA", "details": "literature value, similar experimental set-up; cited from earlier work"}, "CYP3A5 [1]": {"biological_target": "T2, CYP3A5 (Homo sapiens, UniProt P20815)", "T2 construct": "purchased BD Gentest (Woburn, Mass.)", "T2 sequence (P20815 whole entry)": "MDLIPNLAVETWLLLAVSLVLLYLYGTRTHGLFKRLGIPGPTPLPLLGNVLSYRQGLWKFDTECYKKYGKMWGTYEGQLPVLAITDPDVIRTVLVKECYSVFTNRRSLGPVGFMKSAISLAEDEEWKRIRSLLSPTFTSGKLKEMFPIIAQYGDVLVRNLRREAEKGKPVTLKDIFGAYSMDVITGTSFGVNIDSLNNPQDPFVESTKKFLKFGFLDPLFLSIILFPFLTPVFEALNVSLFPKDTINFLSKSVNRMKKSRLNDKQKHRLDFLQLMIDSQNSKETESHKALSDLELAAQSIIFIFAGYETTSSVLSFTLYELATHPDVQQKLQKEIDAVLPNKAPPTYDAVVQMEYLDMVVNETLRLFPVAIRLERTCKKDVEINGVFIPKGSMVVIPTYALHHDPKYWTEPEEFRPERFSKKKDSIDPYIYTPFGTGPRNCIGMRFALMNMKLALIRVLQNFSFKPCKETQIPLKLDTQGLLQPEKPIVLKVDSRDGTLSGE", "test": "Metabolic stability (substrate depletion) with CYP3A5", "type": "in vitro ADME", "details": "for elimination rate constant k by CYP3A5 / half-life at 1 μM: 1 μM substrate, CYP3A5 10 pmol/mL; for CLint (CYP3A5): PBPK parameter, in vitro data obtained; for half-life at 1 μM: human, CYP3A5 enzyme, pH 7.4, read-out: T1/2 by CYP3A5; for Intrinsic clearance, CLint CYP3A5: substrate depletion", "method": "The metabolic stability experiments were performed to derive intrinsic clearance (CLint) values via the substrate depletion method. […] NADPH A was subsequently added to initiate the reaction. […] The reaction mixtures were incubated at 37° C. with gentle agitation. At the respective time points (0-60 min), 80 μL of the reaction mixture was quenched using an equal volume of ice-cold ACN with 1 μM tamoxifen as internal standard (IS). The samples were then centrifuged at 3220 g at 4° C. for 30 min before transferring the supernatant to a 96-well plate for liquid chromatography-tandem mass spectrometry (LC-MS/MS) analysis.\nThe mean of triplicate peak area ratios for each compound was normalized to that of the same compound at the 0 min time point to obtain the percentage of substrate remaining at each time point. This was plotted against incubation time for each compound and the data was then fitted to a one-phase decay model using GraphPad Prism software (version 8.02; GraphPad Inc., San Diego, Calif.) to obtain an estimation for the elimination rate constant (k). CLint was then calculated based on equation 3:\nIn equation 3, k=elimination rate constant (min^−1); V=volume of incubation mixture (mL); P=amount of protein in mixture (mg)."}, "[2]": {"test": "Cytotoxicity (dead-cell protease, Mitochondrial ToxGlo) in differentiated H9c2 cells", "type": "cell-based", "details": "rat, differentiated H9c2 cells, 6 h exposure, read-out: cytotoxicity EC50 (bis-AAF-R110 dead-cell protease fluorescence)", "method": "(§1) H9c2 cell line was purchased from American Tissue Type Collection (ATCC) (Manassas, Va.). The cells were cultured in low-glucose DMEM growth media (Cat No: 31600, Thermo Fisher Scientific, Waltham, Mass.) supplemented with 1.5 g/L sodium bicarbonate, 25 mM HEPES, 10% fetal bovine serum (FBS) (GE Healthcare, Singapore), 100 units/mL penicillin, 100 μg/mL streptomycin and 250 ng/mL amphotericin B in 75-cm^2 tissue-culture flasks at 37° C. in a humidified atmosphere of 5% CO2. Cells were fed every 2-3 days and sub-cultured once 70-80% confluency was achieved to prevent the loss of differentiation potential. For differentiation, H9c2 cells were seeded at a density of 100,000 cells/well in 12-well plates. The cells were maintained for 1 day in low-glucose high-serum growth media to allow for cell attachment. Subsequently, cells were differentiated using 1 μM ATRA.\n(§2) H9c2 cells were seeded in a white chimney plate and differentiated. The media was changed to DMEM with 10 mM galactose, 2 mM glutamine (6 mM final), 5 mM HEPES, 1 mM sodium pyruvate, 100 U/mL penicillin, 100 μg/mL streptomycin, 0.25 μg/mL amphotericin B, 1% FBS, 1× insulin-transferrin-selenium and 1 μM ATRA for 48 h to overcome the Crabtree effect. […] The cytotoxicity and intracellular ATP content were measured concurrently using Mitochondrial ToxGlo™ kit (Promega, Madison, Wis.) using manufacturer's protocol. Mitochondrial ToxGlo™ assay measures the cell viability using fluorogenic peptide bis-alanine-alanine-phenylalanine-R110 (bis-AAF-R110). Bis-AAF-R110 is a selective peptide that measures protease activity in dead cells since it is impermeable to live cells. Here, the fluorescence derived from metabolized bis-AAF-R110 was measured at different concentrations of the test compounds and compared to control. As the concentration of cytotoxic compound increases, the number of dead cells increases, leading to a higher fluorescence signal. ATP is measured by adding the ATP Detection Reagent, resulting in cell lysis and generation of a luminescent signal proportional to the amount of ATP present. […]"}, "H9c2 cells": {"tested_on": "H9c2 cells", "test": "Cytotoxicity (dead-cell protease, Mitochondrial ToxGlo) in differentiated H9c2 cells", "type": "cell-based", "method": "as §1, §2"}, "[3]": {"test": "Aqueous solubility, MultiscreenHTS PCF Filter Plates", "type": "physicochemical", "details": "aqueous buffer; universal buffer (pH 7.4)", "method": "The aqueous solubility of each compound was measured in universal buffer (pH 7.4) using MultiscreenHTS PCF Filter Plates. The effective permeability of each compound was measured using the parallel artificial membrane permeability assay (PAMPA)."}, "[4]": {"details": "cited from earlier work"}, "CYP3A5 [5]": {"biological_target": "T2, CYP3A5", "details": "literature value, similar experimental set-up; cited from earlier work"}, "CYP2J2": {"biological_target": "T3, CYP2J2 (Homo sapiens, UniProt P51589)", "T3 sequence (P51589 1-502)": "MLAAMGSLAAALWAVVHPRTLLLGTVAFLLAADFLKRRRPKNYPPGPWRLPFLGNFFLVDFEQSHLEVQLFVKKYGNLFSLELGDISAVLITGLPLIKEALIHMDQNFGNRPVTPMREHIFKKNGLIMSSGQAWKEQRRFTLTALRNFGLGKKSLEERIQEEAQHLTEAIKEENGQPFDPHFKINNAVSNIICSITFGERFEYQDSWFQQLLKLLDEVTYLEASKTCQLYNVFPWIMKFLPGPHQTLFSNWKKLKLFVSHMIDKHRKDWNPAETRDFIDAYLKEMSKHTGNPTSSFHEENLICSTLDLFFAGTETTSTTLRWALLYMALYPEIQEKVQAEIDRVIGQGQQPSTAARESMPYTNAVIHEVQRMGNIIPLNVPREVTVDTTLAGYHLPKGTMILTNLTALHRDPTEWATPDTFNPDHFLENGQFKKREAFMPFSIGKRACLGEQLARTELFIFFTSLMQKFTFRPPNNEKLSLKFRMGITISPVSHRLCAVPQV", "test": "In-vitro metabolic half-life with recombinant CYP2J2", "type": "in vitro ADME", "details": "recombinant CYP2J2, NADPH, 1 μM drug, read-out: Metabolic half-life (T1/2)"}}, "note": "Where two headings read alike, the source gives them in different places. Marks after values point to notes of the source that are not given here.", "data": [{"molecule": "CCCCc1oc2ccc(NS(C)(=O)=O)cc2c1C(=O)c1ccc(OCCCN(CCCC)CCCC)cc1.Cl", "note": "[Dronedarone]", "values": [{"measurement": "CLint CYP3A4 reported by Hong et al", "setting": "CYP3A4", "value": 6.442, "unit": "µL/min/pmol"}, {"measurement": "elimination rate constant k by CYP3A5", "setting": "CYP3A5 [1]", "value": 0.03989, "unit": "min⁻¹"}, {"measurement": "CLint (CYP3A5)", "setting": "CYP3A5 [1]", "value": "14.1812* μL/min/mg microsomal protein"}, {"measurement": "half-life at 1 μM", "setting": "CYP3A5 [1]", "value": 17.4, "unit": "min"}, {"measurement": "Intrinsic clearance, CLint CYP3A5", "setting": "CYP3A5 [1]", "value": 3.99, "unit": "µL/min/pmol"}, {"measurement": "Intrinsic clearance, CLint CYP3A5", "setting": "CYP3A5 [1]; listed as dronedarone", "value": 3.989, "unit": "µL/min/pmol"}, {"measurement": "EC50 at 6 h", "setting": "[2]", "value": 1.21, "unit": "µM"}, {"measurement": "EC50", "setting": "H9c2 cells; 6 h exposure, read-out: cytotoxicity EC50 (bis-AAF-R110 dead-cell protease fluorescence)", "value": 1.2, "unit": "µM"}, {"measurement": "increase in the protease activity (cell death)", "setting": "H9c2 cells; no pre-treatment with EETs", "value": "150-200%"}, {"measurement": "solubility", "setting": "[3]", "value": 3.22, "unit": "µg/mL"}, {"measurement": "Caco-2 permeability", "setting": "[4]; PBPK parameter", "value": 0.595, "unit": "×10⁻⁶ cm/s"}, {"measurement": "Kp of tissues: Adipose", "setting": "[4]; PBPK parameter", "value": 1}, {"measurement": "Kp of tissues: Heart", "setting": "[4]; PBPK parameter", "value": 1}, {"measurement": "Kp of tissues: Kidney", "setting": "[4]; PBPK parameter", "value": 1}, {"measurement": "Kp of tissues: Liver", "setting": "[4]; PBPK parameter", "value": 38.05}, {"measurement": "Kp of tissues: Lung", "setting": "[4]; PBPK parameter", "value": 64.01}, {"measurement": "fu", "setting": "[4]; PBPK parameter", "value": 0.003}, {"measurement": "log P", "setting": "[4]; PBPK parameter", "value": 6.46}, {"measurement": "pKa", "setting": "[4]; PBPK parameter, monoprotic base", "value": 9.4}, {"measurement": "Solubility-pH profile", "setting": "[4]; pH 3", "value": 1.6, "unit": "mg/mL"}, {"measurement": "Solubility-pH profile", "setting": "[4]; pH 4", "value": 1.6, "unit": "mg/mL"}, {"measurement": "Solubility-pH profile", "setting": "[4]; pH 5", "value": 1.5, "unit": "mg/mL"}, {"measurement": "Solubility-pH profile", "setting": "[4]; pH 6", "value": 0.1, "unit": "mg/mL"}, {"measurement": "Solubility-pH profile", "setting": "[4]; pH 7", "value": 0.01, "unit": "mg/mL"}, {"measurement": "CLint CYP3A5 reported by Hong et al", "setting": "CYP3A5 [5]", "value": 2.604, "unit": "µL/min/pmol"}, {"measurement": "half-life at 1 μM", "setting": "CYP2J2", "value": 4.95, "unit": "min"}]}, {"molecule": "Cl.[2H]c1c(NS(C)(=O)=O)c([2H])c2c(C(=O)c3ccc(OCCCN(CCCC)CCCC)cc3)c(CCCC)oc2c1[2H]", "note": "[Poyendarone, Methanesulfonamide, N-(2-butyl-3-(4-(3-(dibutylamino)propoxy)benzoyl)-1-benzo(4,6,7-d3)-furan-5-yl)hydrochloride]", "values": [{"measurement": "elimination rate constant k by CYP3A5", "setting": "CYP3A5 [1]", "value": 0.02757, "unit": "min⁻¹"}, {"measurement": "CLint (CYP3A5)", "setting": "CYP3A5 [1]", "value": "14.2384* μL/min/mg microsomal protein"}, {"measurement": "half-life at 1 μM", "setting": "CYP3A5 [1]", "value": 25.1, "unit": "min"}, {"measurement": "Intrinsic clearance, CLint CYP3A5", "setting": "CYP3A5 [1]", "value": 2.76, "unit": "µL/min/pmol"}, {"measurement": "Intrinsic clearance, CLint CYP3A5", "setting": "CYP3A5 [1]; listed as poyendarone", "value": 2.757, "unit": "µL/min/pmol"}, {"measurement": "solubility", "setting": "[3]", "value": 2.43, "unit": "µg/mL"}, {"measurement": "Caco-2 permeability", "setting": "[4]; PBPK parameter, assumed", "value": 0.595, "unit": "×10⁻⁶ cm/s"}, {"measurement": "Kp of tissues: Liver", "setting": "[4]; PBPK parameter, assumed", "value": 38.05}, {"measurement": "Kp of tissues: Lung", "setting": "[4]; PBPK parameter, assumed", "value": 64.01}, {"measurement": "pKa", "setting": "[4]; PBPK parameter, assumed", "value": 9.4}, {"measurement": "Kp of tissues: Adipose", "setting": "[4]; PBPK parameter", "value": 1}, {"measurement": "Kp of tissues: Heart", "setting": "[4]; PBPK parameter", "value": 1}, {"measurement": "Kp of tissues: Kidney", "setting": "[4]; PBPK parameter", "value": 1}, {"measurement": "log P", "setting": "[4]; PBPK parameter", "value": 6.442}, {"measurement": "Additional HLM clearance", "setting": "[4]; assumed", "value": "55 μL/min/mg microsomal protein"}, {"measurement": "Intrinsic solubility", "setting": "[4]; assumed", "value": "2.01 × 10^−3 (assumed) mg/mL"}, {"measurement": "half-life at 1 μM", "setting": "CYP2J2", "value": 5.32, "unit": "min"}]}]}
